Laboratory results reported in US11530210B2, “Substituted heteroaromatic pyrazolo-pyridines and their use as GLUN2B receptor modulators” (JANSSEN PHARMACEUTICA NV, priority 2019, dated 2022).
Structures can show the parent of a compound that is named as a salt.

Target: T1, human GluN1/GluN2B NMDA receptors (Homo sapiens, UniProt Q13224)
T1 construct: expressed in transfected cells
Assay: Calcium flux (FLIPR) assay on cloned human NR1/GluN2B ion channels expressed in mammalian cells (standard and HTS variants)
Assay type: cell-based
Details: cells expressing human GluN1/GluN2B, glutamate and glycine co-agonists
Outline: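 Tet-On-induced stable cell line loaded with Calcium 5 dye; compounds applied 5 min (agonist check), then glutamate at ~EC40 plus 10 μM glycine for 5 min. Buffer pH 7.4 with 0.5 mM MgCl2 in dye loading (standard) or 1.5 mM (HTS). FLIPR fluorescence normalized to control wells; (+)MK-801 as antagonist control.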

T1 sequence (Q13224 27-1484, other chains not shown): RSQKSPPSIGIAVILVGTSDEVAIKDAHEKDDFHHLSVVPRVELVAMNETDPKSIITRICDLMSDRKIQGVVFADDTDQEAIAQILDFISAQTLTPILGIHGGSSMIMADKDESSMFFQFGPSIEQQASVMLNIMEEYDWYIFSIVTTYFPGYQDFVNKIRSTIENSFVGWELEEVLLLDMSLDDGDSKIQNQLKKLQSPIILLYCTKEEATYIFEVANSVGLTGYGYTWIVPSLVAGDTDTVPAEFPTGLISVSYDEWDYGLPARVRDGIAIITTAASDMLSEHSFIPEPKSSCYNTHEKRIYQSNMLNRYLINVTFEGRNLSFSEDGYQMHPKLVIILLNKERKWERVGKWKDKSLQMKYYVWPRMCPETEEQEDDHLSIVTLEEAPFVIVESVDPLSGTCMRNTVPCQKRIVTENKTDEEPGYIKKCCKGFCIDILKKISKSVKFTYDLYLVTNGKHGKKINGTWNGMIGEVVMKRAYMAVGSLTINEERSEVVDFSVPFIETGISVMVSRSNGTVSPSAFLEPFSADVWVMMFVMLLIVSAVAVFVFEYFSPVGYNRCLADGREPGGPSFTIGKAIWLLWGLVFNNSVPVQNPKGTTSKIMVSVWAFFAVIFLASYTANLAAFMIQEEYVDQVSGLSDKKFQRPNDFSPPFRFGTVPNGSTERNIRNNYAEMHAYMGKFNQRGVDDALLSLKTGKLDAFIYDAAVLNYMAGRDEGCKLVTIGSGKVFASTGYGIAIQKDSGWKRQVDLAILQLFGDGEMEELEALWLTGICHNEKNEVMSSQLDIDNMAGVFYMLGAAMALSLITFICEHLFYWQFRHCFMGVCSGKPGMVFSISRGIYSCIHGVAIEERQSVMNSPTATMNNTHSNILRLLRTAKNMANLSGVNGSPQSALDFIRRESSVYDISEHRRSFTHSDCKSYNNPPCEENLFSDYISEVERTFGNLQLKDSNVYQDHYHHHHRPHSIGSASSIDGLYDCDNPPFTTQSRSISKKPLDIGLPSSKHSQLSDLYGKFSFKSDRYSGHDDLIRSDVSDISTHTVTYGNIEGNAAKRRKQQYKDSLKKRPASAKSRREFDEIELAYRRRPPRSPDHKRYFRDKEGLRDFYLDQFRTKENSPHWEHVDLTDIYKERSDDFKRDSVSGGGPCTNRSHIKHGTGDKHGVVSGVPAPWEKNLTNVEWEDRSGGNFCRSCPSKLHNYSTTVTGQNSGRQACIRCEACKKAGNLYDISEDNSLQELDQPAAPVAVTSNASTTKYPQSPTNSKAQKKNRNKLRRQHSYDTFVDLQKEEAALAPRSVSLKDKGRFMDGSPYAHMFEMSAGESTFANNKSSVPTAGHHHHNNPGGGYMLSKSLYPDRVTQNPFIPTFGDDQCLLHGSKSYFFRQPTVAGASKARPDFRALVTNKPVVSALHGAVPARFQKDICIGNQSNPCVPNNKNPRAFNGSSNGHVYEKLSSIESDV

Compound	IC50 [nM]
N#Cc1cccc(Cn2ncc3ncc(-c4cccc(C(F)(F)F)c4)cc32)c1 [Example 23, 3-[[6-[3-(Trifluoromethyl)phenyl]pyrazolo[4,3-b]pyridin-1-yl]methyl]benzonitrile]	400
FC(F)(F)c1cccc(-c2cnc3cnn(Cc4ccccn4)c3c2)c1 [Example 162, 1-(2-Pyridylmethyl)-6-[3-(trifluoromethyl)phenyl]pyrazolo[4,3-b]pyridine]	930
FC(F)(F)c1cccc(-c2cnc3cnn(Cc4ccc(C(F)(F)F)nc4)c3c2)c1 [Example 174, 6-[3-(Trifluoromethyl)phenyl]-1-[[6-(trifluoromethyl)-3-pyridyl]methyl]pyrazolo[4,3-b]pyridine]	11900
Cc1cnc(Cn2ncc3ncc(-c4ccc(F)c(C)c4F)cc32)s1 [Example 70, 2-[[6-(2,4-Difluoro-3-methyl-phenyl)pyrazolo[4,3-b]pyridin-1-yl]methyl]-5-methyl-thiazole]	350
FC(F)(F)c1cccc(-c2cnc3cnn(Cc4csnn4)c3c2)c1 [Example 120, 4-[[6-[3-(Trifluoromethyl)phenyl]pyrazolo[4,3-b]pyridin-1-yl]methyl]thiadiazole]	895
FC(F)(F)c1cccc(-c2cnc3cnn(Cc4ncon4)c3c2)c1 [Example 20, 3-[[6-[3-(Trifluoromethyl)phenyl]pyrazolo[4,3-b]pyridin-1-yl]methyl]-1,2,4-oxadiazole]	751
COc1ncccc1Cn1ncc2ncc(-c3ccc(F)c(OC(F)F)c3)cc21 [Example 229, 6-[3-(Difluoromethoxy)-4-fluoro-phenyl]-1-[(2-methoxy-3-pyridyl)methyl]pyrazolo[4,3-b]pyridine]	716
Cc1ncc(Cn2ncc3ncc(-c4ccc(F)c(OC(F)F)c4)cc32)o1 [Example 60, 5-[[6-[3-(Difluoromethoxy)-4-fluoro-phenyl]pyrazolo[4,3-b]pyridin-1-yl]methyl]-2-methyl-oxazole]	559
Cc1nccc(Cn2ncc3ncc(-c4ccc(F)c(C(F)F)c4)cc32)n1 [Example 282, 6-[3-(Difluoromethyl)-4-fluoro-phenyl]-1-[(2-methylpyrimidin-4-yl)methyl]pyrazolo[4,3-b]pyridine]	387
Cc1cc(-c2cnc3cnn(Cc4cccnc4C)c3c2)ccc1F [Example 179, 6-(4-Fluoro-3-methyl-phenyl)-1-[(2-methyl-3-pyridyl)methyl]pyrazolo[4,3-b]pyridine]	507
Fc1ccc(Cn2ncc3ncc(-c4ccc(Cl)c(Cl)c4)cc32)cn1 [Example 214, 6-(3,4-Dichlorophenyl)-1-[(6-fluoro-3-pyridyl)methyl]pyrazolo[4,3-b]pyridine]	1910
Cc1nnc(Cn2nc(F)c3ncc(-c4ccc(Cl)c(OC(F)F)c4)cc32)o1 [Example 117, 2-[[6-[4-Chloro-3-(difluoromethoxy)phenyl]-3-fluoro-pyrazolo[4,3-b]pyridin-1-yl]methyl]-5-methyl-1,3,4-oxadiazole]	655
Cc1ncc(Cn2ncc3ncc(-c4ccc(Cl)c(C)c4)cc32)cn1 [Example 286, 6-(4-Chloro-3-methyl-phenyl)-1-[(2-methylpyrimidin-5-yl)methyl]pyrazolo[4,3-b]pyridine]	3020
FC(F)(F)c1cccc(-c2cnc3cnn(Cc4cnccc4C(F)(F)F)c3c2)c1 [Example 176, 6-[3-(Trifluoromethyl)phenyl]-1-[[4-(trifluoromethyl)-3-pyridyl]methyl]pyrazolo[4,3-b]pyridine]	1300
Fc1cc(-c2cnc3cnn(Cc4ccccn4)c3c2)cc(F)c1F [Example 250, 1-(2-Pyridylmethyl)-6-(3,4,5-trifluorophenyl)pyrazolo[4,3-b]pyridine]	2630
Cc1nc(Cn2ncc3ncc(-c4ccc(F)c(C(F)F)c4)cc32)co1 [Example 55, 4-[[6-[3-(Difluoromethyl)-4-fluoro-phenyl]pyrazolo[4,3-b]pyridin-1-yl]methyl]-2-methyl-oxazole]	285
COc1cccc(Cn2ncc3ncc(-c4ccc(F)c(OC(F)F)c4)cc32)n1 [Example 228, 6-[3-(Difluoromethoxy)-4-fluoro-phenyl]-1-[(6-methoxy-2-pyridyl)methyl]pyrazolo[4,3-b]pyridine]	383
COc1ncccc1Cn1ncc2ncc(-c3cccc(C(F)(F)F)c3)cc21 [Example 172, 1-[(2-Methoxy-3-pyridyl)methyl]-6-[3-(trifluoromethyl)phenyl]pyrazolo[4,3-b]pyridine trifluoroacetate salt]	7780
COc1cncc(Cn2ncc3ncc(-c4ccc(F)cc4)cc32)c1 [Example 150, 6-(4-Fluorophenyl)-1-[(5-methoxy-3-pyridyl)methyl]pyrazolo[4,3-b]pyridine]	410
Fc1cc(F)cc(Cn2ncc3ncc(-c4ccc(F)c(C(F)F)c4)cc32)c1 [Example 27, 6-[3-(Difluoromethyl)-4-fluoro-phenyl]-1-[(3,5-difluorophenyl)methyl]pyrazolo[4,3-b]pyridine]	394

The next compounds have a lower IC50 than those just listed; values first:

IC50 [nM]	Compound
58	Fc1ccc(-c2cnc3cnn(Cc4nnco4)c3c2)cc1C(F)F [Example 94, 2-[[6-[3-(Difluoromethyl)-4-fluoro-phenyl]pyrazolo[4,3-b]pyridin-1-yl]methyl]-1,3,4-oxadiazole]
52	Cc1cncc(Cn2ncc3ncc(-c4ccc(F)c(C)c4F)cc32)c1 [Example 246, 6-(2,4-Difluoro-3-methyl-phenyl)-1-[(5-methyl-3-pyridyl)methyl]pyrazolo[4,3-b]pyridine]
52	Fc1ccc(-c2cnc3cnn(Cc4cncnc4)c3c2)cc1OC(F)F [Example 278, 6-[3-(Difluoromethoxy)-4-fluoro-phenyl]-1-(pyrimidin-5-ylmethyl)pyrazolo[4,3-b]pyridine]
72	Cc1nnc(Cn2ncc3ncc(-c4ccc(F)c(OC(F)F)c4)cc32)s1 [Example 133, 2-[[6-[3-(Difluoromethoxy)-4-fluoro-phenyl]pyrazolo[4,3-b]pyridin-1-yl]methyl]-5-methyl-1,3,4-thiadiazole]
18	Cc1cc(Cn2ncc3ncc(-c4ccc(F)c(C(F)F)c4)cc32)no1 [Example 53, 3-[[6-[3-(Difluoromethyl)-4-fluoro-phenyl]pyrazolo[4,3-b]pyridin-1-yl]methyl]-5-methyl-isoxazole]
143	Cc1nnc(Cn2ncc3ncc(-c4cccc(C(F)(F)F)c4)cc32)o1 [Example 85, 2-Methyl-5-[[6-[3-(trifluoromethyl)phenyl]pyrazolo[4,3-b]pyridin-1-yl]methyl]-1,3,4-oxadiazole]
37	Cc1nnc(Cn2ncc3ncc(-c4ccc(F)c(C)c4)cc32)o1 [Example 89, 2-[[6-(4-Fluoro-3-methyl-phenyl)pyrazolo[4,3-b]pyridin-1-yl]methyl]-5-methyl-1,3,4-oxadiazole]
202	Cc1nc(Cn2ncc3ncc(-c4cccc(C(F)(F)F)c4)cc32)no1 [Example 86, 5-Methyl-3-[[6-[3-(trifluoromethyl)phenyl]pyrazolo[4,3-b]pyridin-1-yl]methyl]-1,2,4-oxadiazole]
113	Cc1cc(-c2cnc3cnn(Cc4cnccc4C)c3c2)ccc1F [Example 181, 6-(4-Fluoro-3-methyl-phenyl)-1-[(4-methyl-3-pyridyl)methyl]pyrazolo[4,3-b]pyridine trifluoroacetate salt]
159	Cc1cc(Cn2ncc3ncc(-c4ccc(Cl)c(OC(F)F)c4)cc32)no1 [Example 62, 3-[[6-[4-Chloro-3-(difluoromethoxy)phenyl]pyrazolo[4,3-b]pyridin-1-yl]methyl]-5-methyl-isoxazole]
26	Fc1ccc(-c2cnc3cnn(Cc4cncc(Cl)c4)c3c2)cc1C(F)F [Example 208, 1-[(5-Chloro-3-pyridyl)methyl]-6-[3-(difluoromethyl)-4-fluoro-phenyl]pyrazolo[4,3-b]pyridine]
123	Fc1ccc(-c2cnc3cnn(Cc4nnc(C5CC5)s4)c3c2)cc1C(F)F [Example 130, 2-Cyclopropyl-5-[[6-[3-(difluoromethyl)-4-fluoro-phenyl]pyrazolo[4,3-b]pyridin-1-yl]methyl]-1,3,4-thiadiazole]
111	Cn1cnnc1Cn1ncc2ncc(-c3ccc(F)c(C(F)F)c3)cc21 [Example 74, 6-[3-(Difluoromethyl)-4-fluoro-phenyl]-1-[(4-methyl-1,2,4-triazol-3-yl)methyl]pyrazolo[4,3-b]pyridine]
70	Fc1ccc(-c2cnc3cnn(Cc4nnc(C5CC5)o4)c3c2)cc1C(F)F [Example 99, 2-Cyclopropyl-5-[[6-[3-(difluoromethyl)-4-fluoro-phenyl]pyrazolo[4,3-b]pyridin-1-yl]methyl]-1,3,4-oxadiazole]
44	Cc1cc(Cn2ncc3ncc(-c4cccc(C(C)(F)F)c4)cc32)no1 [Example 45, 3-[[6-[3-(1,1-Difluoroethyl)phenyl]pyrazolo[4,3-b]pyridin-1-yl]methyl]-5-methyl-isoxazole]
217	COc1cncc(Cn2ncc3ncc(-c4ccc(Cl)c(Cl)c4)cc32)c1 [Example 215, 6-(3,4-Dichlorophenyl)-1-[(5-methoxy-3-pyridyl)methyl]pyrazolo[4,3-b]pyridine]
48	COc1cncc(Cn2ncc3ncc(-c4ccc(F)c(OC(F)F)c4)cc32)c1 [Example 230, 6-[3-(Difluoromethoxy)-4-fluoro-phenyl]-1-[(5-methoxy-3-pyridyl)methyl]pyrazolo[4,3-b]pyridine]
226	Cc1cc(Cn2ncc3ncc(-c4ccc(F)c(C(F)F)c4)cc32)ncn1 [Example 280, 6-[3-(Difluoromethyl)-4-fluoro-phenyl]-1-[(6-methylpyrimidin-4-yl)methyl]pyrazolo[4,3-b]pyridine]
110	CC(F)(F)c1cccc(-c2cnc3cnn(Cc4cccnn4)c3c2)c1 [Example 257, 6-[3-(1,1-Difluoroethyl)phenyl]-1-(pyridazin-3-ylmethyl)pyrazolo[4,3-b]pyridine]
